Tests used:
[1] = Conversion of prodrugs into p-GSH in liver homogenate; type: in vitro ADME; conditions: liver homogenate with proteinase inhibitors; FIGS. 1 and 2
Experimental: The conversion of the p-GSH prodrugs, compounds 4 & 9 into p-GSH were studied in liver homogenate. Liver and brain homogenate were selected because they not only are considered as metabolic organs for p-GSH but also the target organs of p-GSH. The homogenate was prepared from fresh liver tissue and proteinase inhibitors were added in order to prevent degradation of metabolic enzymes.

[2] = Stability in GI tract (gastric and intestinal phase); type: in vitro ADME; conditions: for Stability in the GI tract compared with p-GSH: summary in words of Table 1
Experimental: (§1) Compounds 4 and 9 were tested in for stability in the gastrointestinal tract and plasma.

[3] = Stability in plasma; type: in vitro ADME; conditions: for Stability in plasma compared with p-GSH: summary in words of Table 1
Experimental: as §1

[4] = tested on: transgenic Alzheimer's mice; conditions: certain earlier data; cited from earlier work
[5] = tested on: acetaminophen (ACP) toxicity; conditions: cited from earlier work
[6] = biological target: T1, glyoxalase-I (Homo sapiens, UniProt Q04760); conditions: previous studies (More, Vince 2012); cited from earlier work
T1 sequence (Q04760 2-184 limits assumed): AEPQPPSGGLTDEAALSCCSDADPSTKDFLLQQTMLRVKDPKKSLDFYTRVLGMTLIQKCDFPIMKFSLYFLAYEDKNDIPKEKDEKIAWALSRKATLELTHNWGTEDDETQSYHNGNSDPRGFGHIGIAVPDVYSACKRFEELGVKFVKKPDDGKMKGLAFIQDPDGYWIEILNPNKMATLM

[7] = tested on: amyloid-β induced neurotoxicity; conditions: certain earlier data; cited from earlier work

Row | Compound | Conversion into parent compound p-GSH [1] | Stability in GI tract, Gastric Phase [2] | Stability in GI tract, Intestinal Phase [2] | Stability in the GI tract compared with p-GSH [2] | Stability in plasma [3] | Stability in plasma compared with p-GSH [3] | Effect on cognitive decline [4] | Rescue agent against acetaminophen (ACP) toxicity [5] | Substrate property for glyoxalase-I [6] | Effect on amyloid-β induced neurotoxicity [7]
1 | CC(=O)SC[C@H](NC(=O)NC[C@H](N)C(=O)O)C(=O)NCC(=O)O [Compound 4] | can be converted into parent compound p-GSH | >24 h | 5.1 h | more stable than p-GSH in the GI tract | 5.8 h | more stable in plasma | – | – | – | –
2 | CCOC(=O)SC[C@H](NC(=O)NC[C@H](N)C(=O)O)C(=O)NCC(=O)O [Compound 9] | can be converted into parent compound p-GSH | >24 h | 7.7 h | more stable than p-GSH in the GI tract | 80 h | more stable in plasma | – | – | – | –
3 | N[C@@H](CNC(=O)N[C@@H](CS)C(=O)NCC(=O)O)C(=O)O [p-GSH] | – | >24 h | 1.3 h < 4 h | – | 0.0433 h | – | prevented cognitive decline | useful as rescue agent | stable substrate | reduced the amyloid-β induced neurotoxicity

From US11479579B2, “Therapeutic compounds and methods” (Regents of the University of Minnesota, priority 2018, dated 2022)
